≈ marks a conversion by molar mass, not a printed value. Calls of active or inactive are those of the source. The calls are words filed in the database; no cut-off is given here.
Assays:
Assay type in all cases: functional
Pichia kudriavzevii [1] = test: Antifungal activity against Candida krusei ATCC 6258 bloodstream forms assessed as time to achieve 50% fungal growth reduction at 0.5 mg/L by time-kill analysis
Pichia kudriavzevii [2] = test: Antifungal activity against Candida krusei ATCC 6258 bloodstream forms assessed as time to achieve 99% fungal growth reduction at 32 mg/L by time-kill analysis
Pichia kudriavzevii [3] = test: Antifungal activity against Candida krusei ATCC 6258 bloodstream forms assessed as time to achieve 90% fungal growth reduction at 2 mg/L by time-kill analysis
Pichia kudriavzevii [4] = test: Antifungal activity against Candida krusei ATCC 6258 bloodstream forms assessed as time to achieve 99.9% fungal growth reduction at 32 mg/L by time-kill analysis
Pichia kudriavzevii [5] = test: Antifungal activity against Candida krusei ATCC 6258 bloodstream forms assessed as time to achieve 50% fungal growth reduction at 2 mg/L by time-kill analysis
Pichia kudriavzevii [6] = test: Antifungal activity against Candida krusei ATCC 6258 bloodstream forms assessed as time to achieve 90% fungal growth reduction at 0.5 mg/L by time-kill analysis
Pichia kudriavzevii [7] = test: Fungicidal activity against Candida krusei CY118 bloodstream forms after 24 hrs by time-kill analysis; details: CY118, 24 h
Pichia kudriavzevii [8] = test: Antifungal activity against Candida krusei EU123 bloodstream forms after 24 hrs by time-kill analysis; details: EU123, 24 h
Pichia kudriavzevii [9] = test: Antifungal activity against Candida krusei ATCC 6258 bloodstream forms after 24 hrs by time-kill analysis; details: ATCC 6258, 24 h
Pichia kudriavzevii [10] = test: Antifungal activity against Candida krusei EU220 bloodstream forms after 24 hrs by time-kill analysis; details: EU220, 24 h
Pichia kudriavzevii [11] = test: Antifungal activity against Candida krusei ATCC 6258 bloodstream forms assessed as minimum concentration producing >= 100% growth reduction after 48 hrs by M27-A3 microdilution method; details: ATCC 6258, 48 h
Pichia kudriavzevii [12] = test: Antifungal activity against Candida krusei ATCC 6258 bloodstream forms assessed as time to achieve 99% fungal growth reduction at 0.12 mg/L by time-kill analysis
Pichia kudriavzevii [13] = test: Antifungal activity against Candida krusei ATCC 6258 bloodstream forms assessed as time to achieve 90% fungal growth reduction at 0.12 mg/L by time-kill analysis
Pichia kudriavzevii [14] = test: Fungicidal activity against Candida krusei CK2 bloodstream forms after 24 hrs by time-kill analysis; details: CK2, 24 h
Pichia kudriavzevii [15] = test: Antifungal activity against Candida krusei ATCC 6258 bloodstream forms assessed as time to achieve 50% fungal growth reduction at 0.12 mg/L by time-kill analysis
Pichia kudriavzevii [16] = test: Antifungal activity against Candida krusei CK6 bloodstream forms after 24 hrs by time-kill analysis; details: CK6, 24 h
Pichia kudriavzevii [17] = test: Antifungal activity against Candida krusei ATCC 6258 bloodstream forms assessed as time to achieve 99% fungal growth reduction at 2 mg/L by time-kill analysis
Pichia kudriavzevii [18] = test: Antifungal activity against Candida krusei ATCC 6258 bloodstream forms assessed as minimum concentration producing >= 50% growth reduction after 48 hrs by M27-A3 microdilution method; details: ATCC 6258, 48 h
Pichia kudriavzevii [19] = test: Fungicidal activity against Candida krusei CK1 bloodstream forms after 24 hrs by time-kill analysis; details: CK1, 24 h
Pichia kudriavzevii [20] = test: Fungicidal activity against Candida krusei ATCC 6258 bloodstream forms after 48 hrs by M27-A3 microdilution method
Pichia kudriavzevii [21] = test: Antifungal activity against Candida krusei CK1 bloodstream forms after 24 hrs by time-kill analysis; details: CK1, 24 h
Pichia kudriavzevii [22] = test: Fungicidal activity against Candida krusei CK6 bloodstream forms after 24 hrs by time-kill analysis; details: CK6, 24 h
Pichia kudriavzevii [23] = test: Antifungal activity against Candida krusei ATCC 6258 bloodstream forms assessed as time to achieve 90% fungal growth reduction at 32 mg/L by time-kill analysis
Pichia kudriavzevii [24] = test: Antifungal activity against Candida krusei CY118 bloodstream forms after 24 hrs by time-kill analysis; details: CY118, 24 h
Pichia kudriavzevii [25] = test: Fungicidal activity against Candida krusei EU220 bloodstream forms after 24 hrs by time-kill analysis; details: EU220, 24 h
Pichia kudriavzevii [26] = test: Antifungal activity against Candida krusei ATCC 6258 bloodstream forms assessed as time to achieve 99.9% fungal growth reduction at 8 mg/L by time-kill analysis
Pichia kudriavzevii [27] = test: Antifungal activity against Candida krusei CK18 bloodstream forms after 24 hrs by time-kill analysis; details: CK18, 24 h
Pichia kudriavzevii [28] = test: Fungicidal activity against Candida krusei EU123 bloodstream forms after 24 hrs by time-kill analysis; details: EU123, 24 h
Pichia kudriavzevii [29] = test: Antifungal activity against Candida krusei ATCC 6258 bloodstream forms assessed as time to achieve 50% fungal growth reduction at 8 mg/L by time-kill analysis
Pichia kudriavzevii [30] = test: Antifungal activity against Candida krusei ATCC 6258 bloodstream forms assessed as time to achieve 50% fungal growth reduction at 32 mg/L by time-kill analysis
Pichia kudriavzevii [31] = test: Antifungal activity against Candida krusei ATCC 6258 bloodstream forms assessed as time to achieve 99.9% fungal growth reduction at 2 mg/L by time-kill analysis
Pichia kudriavzevii [32] = test: Antifungal activity against Candida krusei ATCC 6258 bloodstream forms assessed as minimum concentration producing >= 100% growth reduction after 24 hrs by M27-A3 microdilution method; details: ATCC 6258, 24 h
Pichia kudriavzevii [33] = test: Antifungal activity against Candida krusei ATCC 6258 bloodstream forms assessed as minimum concentration producing >= 50% growth reduction after 24 hrs by M27-A3 microdilution method; details: ATCC 6258, 24 h
Pichia kudriavzevii [34] = test: Fungicidal activity against Candida krusei CK18 bloodstream forms after 24 hrs by time-kill analysis; details: CK18, 24 h
Pichia kudriavzevii [35] = test: Antifungal activity against Candida krusei ATCC 6258 bloodstream forms assessed as time to achieve 99% fungal growth reduction at 8 mg/L by time-kill analysis
Pichia kudriavzevii [36] = test: Antifungal activity against Candida krusei ATCC 6258 bloodstream forms assessed as time to achieve 90% fungal growth reduction at 8 mg/L by time-kill analysis
Pichia kudriavzevii [37] = test: Fungicidal activity against Candida krusei ATCC 6258 bloodstream forms after 24 hrs by time-kill analysis; details: ATCC 6258, 24 h
Pichia kudriavzevii [38] = test: Antifungal activity against Candida krusei ATCC 6258 bloodstream forms assessed as time to achieve 99.9% fungal growth reduction at 0.5 mg/L by time-kill analysis
Pichia kudriavzevii [39] = test: Antifungal activity against Candida krusei ATCC 6258 bloodstream forms assessed as time to achieve 99% fungal growth reduction at 0.5 mg/L by time-kill analysis
Pichia kudriavzevii [40] = test: Antifungal activity against Candida krusei CK2 bloodstream forms after 24 hrs by time-kill analysis; details: CK2, 24 h
Pichia kudriavzevii [41] = test: Antifungal activity against Candida krusei ATCC 6258 bloodstream forms assessed as time to achieve 99.9% fungal growth reduction at 0.12 mg/L by time-kill analysis

Structure (SMILES): CC[C@H](C)C[C@H](C)CCCCCCCCC(=O)N[C@H]1C[C@@H](O)[C@@H](NCCN)NC(=O)[C@@H]2[C@@H](O)CCN2C(=O)[C@H]([C@H](O)CCN)NC(=O)[C@H]([C@H](O)[C@@H](O)c2ccc(O)cc2)NC(=O)[C@@H]2C[C@@H](O)CN2C(=O)[C@H]([C@@H](C)O)NC1=O [CASPOFUNGIN]
- Time (Pichia kudriavzevii [1]): 8.3 h
- Time (Pichia kudriavzevii [2]): 14.3 h
- Time (Pichia kudriavzevii [3]): 12.5 h
- Time (Pichia kudriavzevii [4]): 21.4 h
- Time (Pichia kudriavzevii [5]): 3.7 h
- Time (Pichia kudriavzevii [6]): 27.6 h
- MFC (Pichia kudriavzevii [7]): > 64 µg/mL
- MIC (Pichia kudriavzevii [8]): 2 µg/mL (≈ 1.83 µM)
- MIC (Pichia kudriavzevii [9]): 1 µg/mL (≈ 0.915 µM)
- MIC (Pichia kudriavzevii [10]): 2 µg/mL (≈ 1.83 µM)
- MIC (Pichia kudriavzevii [11]): 0.8 µg/mL (≈ 0.732 µM)
- MIC50 (Pichia kudriavzevii [11]): 1 µg/mL (≈ 0.915 µM)
- MIC90 (Pichia kudriavzevii [11]): 2 µg/mL (≈ 1.83 µM)
- Activity (Pichia kudriavzevii [12]): inactive
- Activity (Pichia kudriavzevii [13]): inactive
- MFC (Pichia kudriavzevii [14]): 1 µg/mL (≈ 0.915 µM)
- Activity (Pichia kudriavzevii [15]): inactive
- MIC (Pichia kudriavzevii [16]): 1 µg/mL (≈ 0.915 µM)
- Time (Pichia kudriavzevii [17]): 24.9 h
- MIC50 (Pichia kudriavzevii [18]): 1 µg/mL (≈ 0.915 µM)
- MIC90 (Pichia kudriavzevii [18]): 2 µg/mL (≈ 1.83 µM)
- MFC (Pichia kudriavzevii [19]): 8 µg/mL (≈ 7.32 µM)
- MFC50 (Pichia kudriavzevii [20]): 2 µg/mL (≈ 1.83 µM)
- MFC90 (Pichia kudriavzevii [20]): 8 µg/mL (≈ 7.32 µM)
- MFC (Pichia kudriavzevii [20]; Pichia kudriavzevii, ATCC 6258, 48 h): 1 µg/mL (≈ 0.915 µM)
- MIC (Pichia kudriavzevii [21]): 1 µg/mL (≈ 0.915 µM)
- MFC (Pichia kudriavzevii [22]): 1 µg/mL (≈ 0.915 µM)
- Time (Pichia kudriavzevii [23]): 7.1 h
- MIC (Pichia kudriavzevii [24]): 4 µg/mL (≈ 3.66 µM)
- MFC (Pichia kudriavzevii [25]): 2 µg/mL (≈ 1.83 µM)
- Time (Pichia kudriavzevii [26]): 29.2 h
- MIC (Pichia kudriavzevii [27]): 1 µg/mL (≈ 0.915 µM)
- MFC (Pichia kudriavzevii [28]): 2 µg/mL (≈ 1.83 µM)
- Time (Pichia kudriavzevii [29]): 2.9 h
- Time (Pichia kudriavzevii [30]): 2.1 h
- Time (Pichia kudriavzevii [31]): 37.4 h
- MIC50 (Pichia kudriavzevii [32]): 1 µg/mL (≈ 0.915 µM)
- MIC90 (Pichia kudriavzevii [32]): 2 µg/mL (≈ 1.83 µM)
- MIC50 (Pichia kudriavzevii [33]): 1 µg/mL (≈ 0.915 µM)
- MIC90 (Pichia kudriavzevii [33]): 2 µg/mL (≈ 1.83 µM)
- MFC (Pichia kudriavzevii [34]): 2 µg/mL (≈ 1.83 µM)
- Time (Pichia kudriavzevii [35]): 19.5 h
- Time (Pichia kudriavzevii [36]): 9.7 h
- MFC (Pichia kudriavzevii [37]): 2 µg/mL (≈ 1.83 µM)
- Time (Pichia kudriavzevii [38]): >48 h
- Time (Pichia kudriavzevii [39]): >48 h
- MIC (Pichia kudriavzevii [40]): 1 µg/mL (≈ 0.915 µM)
- Activity (Pichia kudriavzevii [41]): inactive
